Results taken from ChEMBL document CHEMBL4219267, “Design and synthesis of plant cyclopeptide Astin C analogues and investigation of their immunosuppressive activity” (Bioorg Med Chem Lett, 2018).
Numbered stars: 1 amine (or outer) side, 2 acyl side, 3 side chain; on linkers, the order of the positions; unused ones are H or OH. Square brackets hold non-standard residues; d marks the D form. Peptide text beside a SMILES is read from it. β3hPhg = O=C(C[C@@H](N[*:1])c1ccccc1)[*:2]; ΔPro = O=C(O)[C@@H]1C=CCN1; Abu = CC[C@H](N)C(=O)O

Assay: Immunosuppressive activity in C57BL/6 mouse lymph node cells after 24 hrs by MTT assay
Assay type: functional
Conditions: C57BL/6, 24 h

Row | Structure (SMILES) | IC50
1 | CCCCCCC[C@@H]1NC(=O)[C@H](CC)NC(=O)C[C@H](c2ccccc2)NC(=O)[C@H](CO)NC(=O)[C@H](CC)NC1=O | 65.2 µM
2 | CC[C@@H]1NC(=O)C[C@H](c2ccccc2)NC(=O)[C@H](CC)NC(=O)C[C@H](c2ccccc2)NC(=O)[C@H](CO)NC1=O | 61.8 µM
3 | CC[C@@H]1NC(=O)C[C@H](c2ccccc2)NC(=O)[C@H](CO)NC(=O)[C@H](CC)NC1=O | > 100 µM
4 | CC[C@@H]1NC(=O)C[C@H](c2ccccc2)NC(=O)[C@H](CO)NC(=O)[C@H](CC)NC(=O)[C@H]([C@H](C)OC(=O)c2ccc[nH]2)NC1=O | > 100 µM
5 | CC[C@@H]1NC(=O)[C@@H]2[C@@H](O)[C@@H](O)CN2C(=O)[C@H](CC)NC(=O)C[C@H](c2ccccc2)NC(=O)[C@H](CO)NC1=O | > 100 µM
6 | CC[C@@H]1NC(=O)C[C@H](c2ccccc2)NC(=O)[C@H](CO)NC(=O)[C@H](CC)NC(=O)[C@@H]([C@@H](C)O)NC1=O | 38.4 µM
7 | CC[C@@H]1NC(=O)[C@@H]2[C@H](Cl)[C@H](Cl)CN2C(=O)[C@H](CC)NC(=O)C[C@H](c2ccccc2)NC(=O)[C@H](CO)NC1=O | 12.6 µM
8 | CC[C@@H]1NC(=O)C[C@H](c2ccccc2)NC(=O)[C@H](CO)NC(=O)[C@H](CC)NC(=O)[C@@H]([C@H](C)O)NC1=O | 51.8 µM
9 | CC[C@@H]1NC(=O)C[C@H](c2ccccc2)NC(=O)[C@H](CO)NC(=O)[C@H](CC)NC(=O)[C@H]([C@@H](C)O)NC1=O | > 100 µM
10 | CC[C@@H]1NC(=O)C[C@H](c2ccccc2)NC(=O)[C@H](CO)NC(=O)[C@H](CC)NC(=O)[C@H]([C@H](C)O)NC1=O | > 100 µM
11 | CC[C@@H]1NC(=O)C[C@H](c2ccccc2)NC(=O)[C@H](CO)NC(=O)[C@H](CC)NC(=O)[C@H](C)NC1=O (cyclo(A[Abu]S[β3hPhg][Abu])) | > 100 µM
12 | CC[C@@H]1NC(=O)C[C@H](c2ccccc2)NC(=O)[C@H](CO)NC(=O)[C@H](CC)NC(=O)[C@H](Cc2c[nH]cn2)NC1=O (cyclo([Abu]H[Abu]S[β3hPhg])) | > 100 µM
13 | CC[C@@H]1NC(=O)C[C@H](c2ccccc2)NC(=O)[C@H](CO)NC(=O)[C@H](CC)NC(=O)[C@H](CCCCN)NC1=O (cyclo([Abu]K[Abu]S[β3hPhg])) | > 100 µM
14 | CC[C@@H]1NC(=O)C[C@H](c2ccccc2)NC(=O)[C@H](CO)NC(=O)[C@H](CC)NC(=O)[C@H](CC(C)C)NC1=O (cyclo([Abu]L[Abu]S[β3hPhg])) | > 100 µM
15 | CC[C@@H]1NC(=O)C[C@H](c2ccccc2)NC(=O)[C@H](CO)NC(=O)[C@H](CC)NC(=O)[C@H](CCCNC(=N)N)NC1=O (cyclo([Abu]R[Abu]S[β3hPhg])) | > 100 µM
16 | CC[C@@H]1NC(=O)C[C@H](c2ccccc2)NC(=O)[C@H](CO)NC(=O)[C@H](CC)NC(=O)[C@H](C(C)C)NC1=O (cyclo([Abu]S[β3hPhg][Abu]V)) | > 100 µM
17 | CC[C@@H]1NC(=O)C[C@H](c2ccccc2)NC(=O)[C@H](CO)NC(=O)[C@H](CC)NC(=O)[C@H](Cc2ccc(O)cc2)NC1=O (cyclo([Abu]S[β3hPhg][Abu]Y)) | > 100 µM
18 | CC[C@@H]1NC(=O)[C@@H]2C=CCN2C(=O)[C@H](CC)NC(=O)C[C@H](c2ccccc2)NC(=O)[C@H](CO)NC1=O (cyclo([Abu]S[β3hPhg][Abu][ΔPro])) | > 100 µM
